Test results: publication PMC8538301, “Structurally Diverse Polycyclic Salicylaldehyde Derivative Enantiomers from a Marine-Derived Fungus Eurotium sp. SCSIO F452” (Marine Drugs, 2021)

Tests used:
[1] = Antioxidative assay (DPPH radical scavenging); conditions: 12 h, 517 nm
Procedure: Sample stock solutions (10 mM) were diluted to final concentrations of 2, 4, 8, 16, 32, 64, and 128 μM in ethanol. Then, 100 μL 0.2 mmol/L DPPH ethanol solution was added to 100 μL sample solutions of different concentrations on 96-well plates, and allowed to react at room temperature. […] After 12 h, the absorbance values were measured at 517 nm and converted into the percentage antioxidant activity (AA) using the following formula: AA(%) = [1 − (Asample − Ablank)/Acontrol] × 100%. All data were obtained in triplicate and are presented as means ± S.D. EC50 values were calculated with the SigmaPlot 10.0 software (Systat Software Inc., CA, USA) using a non-linear curve-fitting method.

[2] = tested on: SF-268 (human glioblastoma carcinoma); experiment: Cytotoxicity assay (SRB); assay type: cell-based; conditions: SF-268 cells, mean ± SD
Procedure: (§1) The cells of SF-268 (human glioblastoma carcinoma), MCF-7 (breast cancer), HepG-2 (liver cancer), and A549 (lung cancer) were purchased from Stem Cell Bank, Chinese Academy of Sciences. The cells were cultured in DMEM medium (Gibco) containing 10% fetal bovine serum (Gibco) at 37 °C in a humidified atmosphere with 5% (v/v) CO2. The cells were incubated in cultural flasks until sub-confluent (~80%). Then, cells (180 μL) with a density of 3 × 10^4 cells/mL of media were seeded onto 96-well plates and incubated for 24 h at 37 °C, 5% CO2. Subsequently, 20 μL of different concentrations of compounds ranging from 1 to 128 μM in DMSO were added to each plate well. Equal volume of DMSO was used as a negative control. The plates were further incubated for 72 h. After incubation, cell monolayers were fixed with 50% (wt/v) trichloroacetic acid (50 μL) and stained for 30 min with 0.4% (wt/v) SRB dissolved in 1% acetic acid. Unbound dye was removed by washing repeatedly with 1% acetic acid. The protein-bound dye was dissolved in 10 mM Tris base solution (200 µL) for OD determination at 570 nm using a microplate reader. […] All data were obtained in triplicate and presented as means ± SD. IC50 values were calculated with the Sigma Plot 10.0 software (Systat Software Inc., CA, USA) using a non-linear curve-fitting method.

MCF-7 (breast cancer) = experiment: Cytotoxicity assay (SRB); assay type: cell-based, human; conditions: MCF-7 cells, mean ± SD
Procedure: as §1

HepG2 (liver cancer) = experiment: Cytotoxicity assay (SRB); assay type: cell-based, human; conditions: HepG2 cells, mean ± SD
Procedure: as §1

A549 (lung cancer) = experiment: Cytotoxicity assay (SRB); assay type: cell-based, human; conditions: A549 cells, mean ± SD
Procedure: as §1

α-glucosidase = experiment: α-Glucosidase inhibitory activity assay (PNPG substrate); assay type: biochemical; conditions: pH 6.8, 37 °C
Procedure: Inhibitory α-glucosidase activities were determined spectrophotometrically in a 96-well microtiter plate based on p-nitrophenyl-α-D-glucopyranoside (PNPG) as a substrate. In brief, 20 μL 0.2 U/mL α-glucosidase enzyme solution, 50 μL 0.1 mol/L PBS (pH 6.8), and 10 μL of the test compounds in DMSO were mixed and preincubated at 37 °C prior to initiation of the reaction by adding the substrate. After 10 min of preincubation, 20 μL 5 mmol/L PNPG solution was added and then incubated together at 37 °C. After 15 min of incubation, 20 μL 0.2 mol/L Na2CO3 was added to the test tubes to stop the reaction. The absorbance values were measured at 405 nm and converted into percentage inhibitory activity using the following formula: AA(%) = [1 − Asample/(Anegative control − Ablank)] × 100%. […] All data were obtained in triplicate and presented as means ± SD. IC50 values were calculated with the Sigma Plot 10.0 software using a non-linear curve-fitting method.

| EC50 [1] | IC50 (α-glucosidase) | SMILES | IC50 ([2]; Homo sapiens, SF-268, 72 h) | IC50 (MCF-7 (breast cancer); Homo sapiens, MCF7, 72 h) | IC50 (HepG2 (liver cancer); Homo sapiens, HepG2, 72 h) | IC50 (A549 (lung cancer); Homo sapiens, A549, 72 h) | IC50 ([2]; 72 h) | IC50 (MCF-7 (breast cancer); 72 h) | IC50 (HepG2 (liver cancer); 72 h) | IC50 (A549 (lung cancer); 72 h) |
| --- | --- | --- | --- | --- | --- | --- | --- | --- | --- | --- |
| > 100 µM | 16.3 ± 1.68 µM | CCCCCC1(O)Cc2c3c(cc(O)c2C1=O)C=CC(C)(C)O3 (racemic) [(±)-3, Euroticin H] | > 100 µM | > 100 µM | > 100 µM | > 100 µM | – | – | – | – |
| > 100 µM | > 100 µM | CCCCCCCC1(O)CC(C=CC(C)(C)O)=CC1=O (single isomer, unassigned; (+)) [(+)-4, Euroticin I] | – | – | – | – | 12.7 ± 0.46 µM | 20.5 ± 1.54 µM | 19.9 ± 5.09 µM | 16.9 ± 0.92 µM |
| 76.9 ± 0.99 µM | 38 ± 2.73 µM | CO[C@H]1O[C@@H]2CC[C@@H]([C@H](C)O)[C@@H]2c2c(O)cc(CC=C(C)C)c(O)c21 [(+)-2, Euroticin G] | > 100 µM | > 100 µM | > 100 µM | > 100 µM | – | – | – | – |
| > 100 µM | 89.4 ± 7.86 µM | CC(C)=CCc1cc2c(c(C=O)c1O)[C@@H]1[C@H](CC[C@@H]1O)[C@@H](C)O2 [(+)-5, eurotirumin] | 22 ± 0.88 µM | 55.6 ± 4.85 µM | 41.2 ± 2.63 µM | 47.3 ± 0.71 µM | – | – | – | – |
| 77.1 ± 1.88 µM | 79.7 ± 1.74 µM | CO[C@@H]1O[C@H]2CC[C@H]([C@@H](C)O)[C@H]2c2c(O)cc(CC=C(C)C)c(O)c21 [(−)-2, Euroticin G] | > 100 µM | > 100 µM | > 100 µM | > 100 µM | – | – | – | – |
| 11.3 ± 0.56 µM | – | O=C1O[C@H]([C@@H](O)CO)C(O)=C1O [Ascorbic acid, reference compound] | – | – | – | – | – | – | – | – |

The remaining lines, values behind:

| SMILES | EC50 [1] | IC50 (α-glucosidase) | IC50 ([2]; Homo sapiens, SF-268, 72 h) | IC50 (MCF-7 (breast cancer); Homo sapiens, MCF7, 72 h) | IC50 (HepG2 (liver cancer); Homo sapiens, HepG2, 72 h) | IC50 (A549 (lung cancer); Homo sapiens, A549, 72 h) | IC50 ([2]; 72 h) | IC50 (MCF-7 (breast cancer); 72 h) | IC50 (HepG2 (liver cancer); 72 h) | IC50 (A549 (lung cancer); 72 h) |
| --- | --- | --- | --- | --- | --- | --- | --- | --- | --- | --- |
| CCCCCCCC1(O)CC(C=CC(C)(C)O)=CC1=O (single isomer, unassigned; (-)) [(−)-4, Euroticin I] | > 100 µM | > 100 µM | 23.7 ± 3.88 µM | 23.6 ± 2.99 µM | 19.5 ± 2.7 µM | 22.2 ± 1.54 µM | – | – | – | – |
| CC(C)=CCc1cc2c(c(C=O)c1O)C1C(O)CCC1C(C)O2 (single isomer, unassigned; (-)) [(−)-5, eurotirumin] | > 100 µM | > 100 µM | 35.6 ± 1.79 µM | 50.7 ± 2.48 µM | 40.7 ± 2.76 µM | 42.6 ± 1.43 µM | – | – | – | – |
| CCCCC[C@H]1O[C@]2(C)Cc3c4c(cc(O)c3[C@H]1O2)C=CC(C)(C)O4 [(+)-1, Euroticin F] | 42.3 ± 3.85 µM | > 100 µM | 21.9 ± 0.96 µM | 27.2 ± 2.03 µM | 28 ± 1.68 µM | 33.8 ± 0.34 µM | – | – | – | – |
| CCCCC[C@@H]1O[C@@]2(C)Cc3c4c(cc(O)c3[C@@H]1O2)C=CC(C)(C)O4 [(−)-1, Euroticin F] | 41.4 ± 2.68 µM | > 100 µM | 37.3 ± 2.46 µM | 28 ± 1.57 µM | 30.7 ± 3.55 µM | 33.4 ± 1.5 µM | – | – | – | – |
| COc1cccc2c1C(=O)c1c(O)c3c(c(O)c1C2=O)C[C@@](O)(C(=O)CO)C[C@@H]3O[C@H]1C[C@H](N)[C@H](O)[C@H](C)O1 [Adriamycin, reference compound] | – | – | 1.19 ± 0.03 µM | 2.02 ± 0.04 µM | 1.99 ± 0.07 µM | 1.73 ± 0.04 µM | – | – | – | – |
